Patent US20060160897A1, “Topical Use of Valproic Acid for the Prevention or Treatment of Skin Disorders” (priority 2003, published 2006)

Legend:
IL-2 and TNF-α [1] = experiment: ELISA of IL-2 and TNF-α, blood cells of VPA treated patient stimulated with CD3/CD28; type: in vivo, human; conditions: CD3/CD28 stimulated 24 hours
Experimental: The cells were either left unstimulated or stimulated with CD3 and CD28 antibodies. After 24 hours at 37° C. the supernatant was collected and the secretion of IL-2 and TNF-α was quantified by ELISA (R&D Systems) (FIGS. 19A and B).

histone H4 acetylation [2] = experiment: Immunohistochemistry of acetylated H4 after topical application to mouse skin; type: in vivo; conditions: athymic nude mice, VPA topically applied at 3% (w/w) vs placebo; FIGS. 8 and 9
Experimental: (§1) Cryostat skin sections of 3 μm thickness were fixed in acetone at room temperature for 10 min. Before staining with anti-acetylated H4 antibody (clone T25, see above) the tissue was blocked by preincubation with F(ab′)2 fragments derived from goat anti-mouse immunoglobulin (Cappel) ( 1/10000 dilution in 50 mM Tris buffered saline, TBS) for 30 min. After rinsing with TBS for 10 min, the sections were incubated with anti-acetylated H4 antibody (clone T25) ( 1/4000 dilution in TBS) at room temperature for 1 hour. Then, the specimens were incubated with the rabbit anti-mouse serum and treated with APAAP (alkaline phosphatase anti-alkaline phosphatase) immunocomplex as described above. The positive staining was developed in red color with naphthol-AS-BI phosphate as a substrate, and New Fuchsin (Dako) as a chromogen. Pictures were taken with a digital camera connected to a light microscopy apparatus.
(§2) Skin biopsies were frozen in liquid nitrogen immediately after excision. Immunohistochemistry was then performed on 3 μm sections as described in methods. Biopsies of skin topically treated with Placebo or VPA were processed in parallel, pictures were taken with a light microscopy apparatus connected to a digital camera under the same light intensity.

histone H4 acetylation [3] = experiment: Immunohistochemistry of acetylated H4 after topical application to BCC lesions of patients; type: in vivo, human; conditions: VPA 3% (w/w) topically 16-20 hours before surgical excision vs placebo; FIG. 10
Experimental: as §1, §2

IL-2 and TNF-α [4] = experiment: IL-2 and TNF-α ELISA, supernatants of stimulated peripheral blood lymphocytes; type: cell-based, human
Experimental: (§3) Monocyte and macrophage depleted peripheral blood mononuclear cells were obtained from consenting adults via separation using Ficoll-Hypaque. The peripheral blood mononuclear cells (PBMC) fraction was washed and seeded in 9 cm petri dishes. After an incubation of 2 hours at 37° C. to remove most of the monocytes, macrophages, and B-cells, the non-adherent cells were collected and cultured in 175 cm^2 flasks for 2 days. Cells were harvested and adjusted to 3 million cells per ml. Aliquots of 500 μl were transferred to each well of 24-well flat bottom plates. Peripheral blood lymphocytes (PBL's) were treated with various concentrations of HDAC inhibitors as indicated. After a 2 hours incubation time at 37° C. cells were stimulated with phorbol 12-myristate 13-acetate (PMA)/ionomycin (Ion) or activated via T cell receptor (TCR/CD3) complex with 10 μg/ml anti-CD3 mAb (OKT3) and 2.5 μg/ml anti-CD28 mAb. After 24 hours at 37° C. the supernatant was removed and frozen for cytokine assays. Cell pellets were lysed and total RNA was isolated using the RNeasy mini kit from Qiagen.
To perform ELISAs, supernatants of treated and untreated PBL's were collected and IL-2 as well as TNF-α were measured using the Duo Set ELISA Development System (R&D Systems) as described by the manufacturer.

HaCaT cells [5] = experiment: BrdU incorporation assay; type: cell-based, human; conditions: VPA added day 0, assay day 2, FIG. 4
Experimental: BrdU incorporation assays: Cell proliferation was detected by labeling cells with BrdU. […] Cells were incubated for 1 hour in the culture medium and then fixed with 70% ethanol. The incorporated BrdU was detected by the indirect immunoperoxidase method (Amersham, Arlington Heights, Ill.). Briefly, the culture cells were first incubated for 1 hour with Biotin-Mouse Anti-BrdU antibody. After washing in TTBS buffer (20 mM Tris, 500 mM NaCl, 0.05% Tween-20, pH 7.5), the cells were further incubated with Biotinylated goat anti-mouse immunoglobulins for 10 min. Cells were then washed and incubated with enzyme (peroxidase) conjugate for 10 min at room temperature. […] The positive cells were counted on 10 randomly picked microscopic fields. HaCaT cells were plated in 35 mm diameter wells on day 0. […] The BrdU assay was carried out on day 2.

HaCaT cells [6] = experiment: MTT assay, growth of human immortalized keratinocytes; type: cell-based
Experimental: MTT assay: This calorimetric assay detects the formation of formazan which is proportional to the number of cells present. Tissue culture medium containing drugs was removed and 200 μl of DME containing 2 mg/ml MTT ((3-4, 5-dimethyl thiazol-2yl) 2,5-diphenyltetrazolium bromide) was added to each well. 96-well plates were incubated at 37 ° C., and 10% CO2 for 30 minutes. Medium containing MTT was then removed and the cells were washed once with PBS. Following removal of the PBS, 200 μL DMSO was added to each well and plates were placed on a rotating platform shaker for 5 minutes. Results were obtained by reading the absorbance at a wavelength of 550 nm using a spectrophotometer. Results are expressed as percentages setting the control as 100%.
FIG. 1 graphically depicts the results of growth assays performed on human immortalized keratinocytes (HaCaT cells), treated for three days with the indicated compounds. Drugs were added on the same day of plating (day 0). The MTT assay (to measure cell proliferation) was carried out on day 3. Various combinations of the drugs were used in the growth assays.
Cells were plated in wells on day 0. […] The MTT assay was carried out on day 3. Various combinations of the drugs were also used in the growth assays. […] Thus, the combinatorial activity of these two drugs must be explained via synergistic activity of this treatment.
Drugs were added on the same day of plating (day 0). The MTT assay (to measure cell proliferation) was carried out on the third day. […] Thus, this combinatorial activity of these two drugs must be explained via synergistic activity of this treatment.

inflammatory cytokines = experiment: Semiquantitative RT-PCR of cytokine mRNA, PMA/Ion stimulated peripheral blood lymphocytes; type: cell-based, human; conditions: PBLs preincubated 2 hours, PMA/Ion 24 hours; FIGS. 12B, 13
Experimental: as §3
One microgram of total RNA was transcribed to cDNA by standard methods using reverse transcriptase and an oligo-dT primer (Invitrogen). For semiquantitative PCR, 2 μl of cDNA was amplified by PCR using specific primers. Primers for PCR were synthesized by MWG and are as follows: […]

[7] = 1 mM, other experiments, PBLs stimulated with PMA/ION and CD3/CD28 mAbs, FIG. 16
[8] = PBLs, increasing concentrations two hours, CD3 and CD28 mAbs 24 hours, FIG. 15

## CCCC(CCC)C(=O)O [VPA, 2-propyl-pentanoic acid]
IL-2 and TNF-α [1]
  IL-2 in culture supernatant (ELISA): modulates the expression
  TNF-α in culture supernatant (ELISA): modulates the expression
Histone H4 acetylation [2]
  histone H4 acetylation in skin cells: clear increase of histone H4 acetylation
Histone H4 acetylation [3]
  histone H4 acetylation in BCC cells and normal skin cells of patients: clear increase of histone H4 acetylation
IL-2 and TNF-α [4]; 0.5 mM, PBLs, CD3/CD28, FIG. 15
  IL-2 secretion: only moderate effect
IL-2 and TNF-α [4]; 1 mM, PBLs, CD3/CD28, FIG. 15
  IL-2 secretion: only moderate effect
IL-2 and TNF-α [4]; [7]
  IL-2 secretion: significant decrease
  TNF-α secretion: significant decrease
IL-2 and TNF-α [4]; 5 mM, PBLs, CD3/CD28, FIG. 15
  IL-2 secretion: significantly reduced
IL-2 and TNF-α [4]; [8]
  IL-2 secretion, dose-response: dose-dependent inhibition
  TNF-α secretion, dose-response: dose-dependent inhibition
HaCaT cells [5]
  BrdU positive cells (cell cycle arrest): dose-dependent reduction of BrdU positive cells
HaCaT cells [6]; MTT on day 3, combinations VPA 1 mM + Retinoic Acid 1 or 2 μM, FIG. 2
  cell growth (MTT assay): inhibited growth
HaCaT cells [6]; MTT on the third day, 5 μM or 10 μM 5-FU and 1 mM VPA, FIG. 3
  cell growth (MTT assay): inhibited growth
HaCaT cells [6]; treated three days, MTT on day 3, combinations VPA 1 mM + Tazarotene 1 or 2 μM, FIG. 1
  cell growth (MTT assay): inhibited cell growth
Inflammatory cytokines
  IL-4 mRNA transcripts: significantly reduced
  IL-6 mRNA transcripts: decreased IL-6 mRNA back to the level seen in the unstimulated sample
